Measured values published in patent publication US20200179415A1, “HIGHLY ACTIVE DRUG COMBINATION FOR TREATMENT OF HEPATITIS C VIRUS” (Atea Pharmaceuticals, Inc., priority 2018, published 2020).
pEC50: −log10 of the molar value. Structures can show the parent of a compound that is named as a salt.

Tests used:
HCV GT1 or HCV GT3 = settings: CPA cirrhosis, QD for seven days; cited from earlier work
HCV GT1a replicon = assay: microbe, parasite or virus in culture; type: cell-based; settings: Hepatitis C virus, Huh-7, 72 h, stable replicon in Huh7 cells, 3 days, read-out: Individual EC50
Procedure: (§1) Huh7 cells were maintained in DMEM supplemented with 10% FBS, 1% NEAA, 1% L-Glutamine and 1% Penicillin-Streptomycin. The stable HCV GT1a and 1b replicon cells were generated by transfection of Huh7 cells with in vitro transcribed HCV replicon RNA transcripts from replicon DNA constructs and were selected with 250 μg/ml of G418. The GT1b/3a NS5B chimeric replicons were constructed with the GT1b replicon as a backbone. GT1b/3a NS5B replicon RNAs were in vitro transcribed using the replicon plasmid DNAs and used to transiently transfect Huh7 cells by electroporation.
(§2) The final concentration of DMSO in the cell culture medium was 0.5%. Compounds were individually tested for their inhibitory activity in stably-transfected GT1a and GT1b replicons and in transiently-transfected GT1b/3a NS5B chimeric replicons in duplicate at 9 concentrations with a series of 4-fold dilutions starting at 10,000 nM. Replicon cells were seeded (8,000 cells/well for GT1a and 1b; 10,000 cells/well for GT1b/3a NS5B) in 96-well plates containing serially diluted compounds and cultured at 37° C. and 5% CO2 for 3 days. CellTiter-Fluor was used to detect the fluorescence signal and the raw data (RFU) was used for calculating cell viability using the equation below: […]
(§3) where CPD is a signal from a well containing a test compound, ZPE is the average of signals from DMSO control wells and HPE is the average of signals from medium control wells.
(§4) The data were analyzed using CompuSyn software (ComboSyn, Inc., Paramus, N.J.) to obtain the concentrations of the individual compounds required to achieve 50% cytotoxicity (CC50) and 50% (EC50) and 90% (EC90) antiviral efficacy. […]
(§5) In Example 6, Huh7 cells were transiently transfected with replicon RNA by electroporation and seeded at a density of 10,000 cells/well in 96-well plates. HCV GT1a and GT1b replicons stable cells were seeded at a density of 8,000 cells/well in 96-well plates. […]

[1] = test system: GT1b_3a-NS5B chimeric HCV replicon; assay: microbe, parasite or virus in culture; type: cell-based; settings: Hepatitis C virus, Huh-7, 72 h, read-out: Individual EC50
Procedure: as §1, §2, §3, §4, §5

HCV GT1b replicon = assay: microbe, parasite or virus in culture; type: cell-based; settings: Hepatitis C virus, Huh-7, 72 h, stable replicon in Huh7 cells, 3 days, read-out: Individual EC50
Procedure: as §1, §2, §3, §4, §5

HCV GT3 = settings: non-cirrhotic patients, 600 mg QD, seven days; cited from earlier work
HCV GT1 = settings: non-cirrhotic patients, 600 mg QD, seven days; cited from earlier work
[2] = Stability of Compound 2-A in stability chambers; type: physicochemical
Procedure: The stability of Compound 2-A was measured under three different conditions: 1) open container; 2) PE/ALU bag where the PE bag is closed with clips and the ALU bag is sealed by thermos-sealing; and 3) PE/ALU bag with desiccant where the PE bag is closed with plastic clip, the ALU bag is sealed by the thermos-sealing, and 10 g of silica gel is placed between the bags. The open container conditions were conducted with two different batches of Compound 2-A. The results of the stability studies are shown in Table 5A, Table 5B, Table 6, and Table 7.

[3] = Hygroscopicity in climatic cabinet; type: physicochemical
Procedure: Compound 2-A was characterized by ^1HNMR, ^13CNMR, FI-IR, and mass spectrum in addition to XRPD (FIG. 1A) and differential scanning calorimetry (DSC) (FIG. 1B). The hygroscopicity was measured by placing a sample in a climatic cabinet set at 25±1° C./80±2% RH for 24 hours. The water content was increased from 3.3% to 9.4%.

[4] = 25° C./60% RH and 40° C./75% RH
[5] = Batch No. 1, open container, 25° C./60% RH, 7 days
[6] = Batch No. 1, open container, 25° C./60% RH, 14 days
[7] = Batch No. 1, open container, 25° C./60% RH, 28 days
[8] = Batch No. 1, open container, 30° C./65% RH, 7 days
[9] = Batch No. 1, open container, 30° C./65% RH, 14 days
[10] = Batch No. 1, open container, 30° C./65% RH, 28 days
[11] = Batch No. 1, open container, 40° C./75% RH, 7 days
[12] = Batch No. 1, open container, 40° C./75% RH, 14 days
[13] = Batch No. 1, open container, 40° C./75% RH, 28 days
[14] = Batch No. 1, open container, Initial
[15] = Batch No. 2, PE/ALU bag, 25° C./60% RH, 7 days
[16] = Batch No. 2, PE/ALU bag, 25° C./60% RH, 16 days
[17] = Batch No. 2, PE/ALU bag, 40° C./75% RH, 7 days
[18] = Batch No. 2, PE/ALU bag, 40° C./75% RH, 16 days
[19] = Batch No. 2, PE/ALU bag, Initial
[20] = Batch No. 2, PE/ALU with desiccant, 25° C./60% RH, 7 days
[21] = Batch No. 2, PE/ALU with desiccant, 25° C./60% RH, 16 days
[22] = Batch No. 2, PE/ALU with desiccant, 40° C./75% RH, 7 days
[23] = Batch No. 2, PE/ALU with desiccant, 40° C./75% RH, 16 days
[24] = Batch No. 2, PE/ALU with desiccant, Initial
[25] = Batch No. 2, open container, 25° C./60% RH, 7 days
[26] = Batch No. 2, open container, 25° C./60% RH, 16 days
[27] = Batch No. 2, open container, 30° C./65% RH, 7 days
[28] = Batch No. 2, open container, 30° C./65% RH, 16 days
[29] = Batch No. 2, open container, 40° C./75% RH, 7 days
[30] = Batch No. 2, open container, 40° C./75% RH, 16 days
[31] = Batch No. 2, open container, Initial

## CNc1nc(N)nc2c1ncn2[C@@H]1O[C@H](CO[P@@](=O)(N[C@@H](C)C(=O)OC(C)C)Oc2ccccc2)[C@@H](O)[C@@]1(C)F [Compound 1-A, hemi-sulfate salt of isopropyl((S)-(((2R,3R,4R,5R)-5-(2-amino-6-(methylamino)-9H-purin-9-yl)-4-fluoro-3-hydroxy-4-methyltetrahydrofuran-2-yl)methoxy)(phenoxy)phosphoryl)-L-alaninate]
HCV GT1 or HCV GT3
  mean maximum HCV RNA reduction: 4.4 log10 IU/mL
HCV GT1a replicon
  pEC50: 8.55
[1]
  pEC50: 8.77
HCV GT1b replicon
  pEC50: 8.57
HCV GT3
  mean maximum HCV RNA reduction: 4.6 log10 IU/mL
HCV GT1
  mean maximum HCV RNA reduction: 4.4 log10 IU/mL

## COC(=O)N[C@H](C(=O)N1CCC[C@H]1c1nc(-c2ccc(-c3ccc(-c4c[nH]c([C@@H]5CCCN5C(=O)[C@@H](NC(=O)OC)C(C)C)n4)c4c3OCO4)cc2)c[nH]1)C(C)C [Compound 2, methyl N-[(2S)-1-[(2S)-2-[5-[4-[7-[2-[(2S)-1-[(2 S)-2-(methoxycarbonylamino)-3-methylbutanoyl]pyrrolidin-2-yl]-1H-imidazol-5-yl]-1,3-benzodioxol-4-yl]phenyl]-1H-imidazol-2-yl]pyrrolidin-1-yl]-3-methyl-1-oxobutan-2-yl]carbamate]
HCV GT1a replicon
  pEC50: 10.52
[1]
  pEC50: 11.54
HCV GT1b replicon
  pEC50: 10.85

## COC(=O)N[C@H](C(=O)N1CCC[C@H]1c1nc(-c2ccc(-c3ccc(-c4c[nH]c([C@@H]5CCCN5C(=O)[C@@H](NC(=O)OC)C(C)C)n4)c4c3OCO4)cc2)c[nH]1)C(C)C [Compound 2-A]
[2]; [4]
  purity change: not changed
  water content change: slowly increased
[2]; [5]
  Appearance: Pale-yellow solid
  Purity (HPLC): 98.45%
  Water (KF): 6.14%
  XRPD: Consistent
[2]; [6]
  Appearance: Pale-yellow solid
  Purity (HPLC): 98.61%
  Water (KF): 6.28%
[2]; [7]
  Appearance: Pale-yellow solid
  Purity (HPLC): 98.58%
  Water (KF): 5.95%
[2]; [8]
  Appearance: Pale-yellow solid
  Purity (HPLC): 98.40%
  Water (KF): 6.73%
  XRPD: Consistent
[2]; [9]
  Appearance: Pale-yellow solid
  Purity (HPLC): 98.47%
  Water (KF): 6.80%
[2]; [10]
  Appearance: Pale-yellow solid
  Purity (HPLC): 98.59%
  Water (KF): 6.49%
[2]; [11]
  Appearance: Pale-yellow solid
  Purity (HPLC): 98.45%
  Water (KF): 7.13%
  XRPD: Consistent
[2]; [12]
  Appearance: Pale-yellow solid
  Purity (HPLC): 98.51%
  Water (KF): 7.67%
[2]; [13]
  Appearance: Pale-yellow solid
  Purity (HPLC): 98.53%
  Water (KF): 6.96%
[2]; [14]
  Appearance: Pale-yellow solid
  Purity (HPLC): 98.39%
  Water (KF): 3.11%
  XRPD: Crystalline
[2]; [15]
  Appearance: White powder
  Purity (HPLC): 99.36%
  Water (KF): 5.18%
[2]; [16]
  Appearance: White powder
  Purity (HPLC): 99.41%
  Water (KF): 5.56%
[2]; [17]
  Appearance: White powder
  Purity (HPLC): 99.37%
  Water (KF): 5.42%
[2]; [18]
  Appearance: White powder
  Purity (HPLC): 99.42%
  Water (KF): 5.91%
[2]; [19]
  Appearance: White powder
  Purity (HPLC): 99.39%
  Water (KF): 4.48%
[2]; [20]
  Appearance: White powder
  Purity (HPLC): 99.38%
  Water (KF): 5.46%
[2]; [21]
  Appearance: White powder
  Purity (HPLC): 99.41%
  Water (KF): 5.83%
[2]; [22]
  Appearance: White powder
  Purity (HPLC): 99.37%
  Water (KF): 5.51%
[2]; [23]
  Appearance: White powder
  Purity (HPLC): 99.42%
  Water (KF): 6.90%
[2]; [24]
  Appearance: White powder
  Purity (HPLC): 99.39%
  Water (KF): 4.48%
[2]; [25]
  Appearance: White powder
  Purity (HPLC): 99.37%
  Water (KF): 6.01%
[2]; [26]
  Appearance: White powder
  Purity (HPLC): 99.41%
  Water (KF): 7.69%
[2]; [27]
  Appearance: White powder
  Purity (HPLC): 99.38%
  Water (KF): 7.50%
[2]; [28]
  Appearance: White powder
  Purity (HPLC): 99.41%
  Water (KF): 6.98%
[2]; [29]
  Appearance: White powder
  Purity (HPLC): 99.38%
  Water (KF): 7.96%
[2]; [30]
  Appearance: White powder
  Purity (HPLC): 99.42%
  Water (KF): 7.03%
[2]; [31]
  Appearance: White powder
  Purity (HPLC): 99.39%
  Water (KF): 4.48%
[3]; after 24 hours at 25±1° C./80±2% RH
  water content: 9.4%
[3]; before storage
  water content: 3.3%
